Patent publication US9358281B2, “Methods, agents and peptides for inducing an innate immune response in HIV vaccination” (New York University, priority 2009, dated 2016)
“Also recorded” adds a separate entry of the source. Read-outs that look alike come from different tables or passages of the source.

What was measured:
Type in all cases: cell-based, human
[1] = test system: STAT1; assay: Immunoblot of phospho-STAT1 over time in MDDC; conditions: after treatment or infection
Protocol: (§1) Western blot analysis: Cells were lysed in 1% NP-40, 50 mM Tris pH 8, 120 mM NaC, 4 mM EDTA, 50 mM NaF, 1 mM NA3VO4 and a protease inhibitors cocktail (Roche). Total lysates were resolved on SDS-PAGE, transferred to PVDF membranes and probed with primary antibodies and corresponding HRP-conjugated secondary antibodies.
as §1, with “NaCl,” for “NaC,”, “inhibitor” for “inhibitors”, “antibodies (GE Healthcare).” for “antibodies.”

[2] = test system: monocyte-derived dendritic cells (MDDC); conditions: for effect on MDDC activation (CD86 in GFP+) by HIVGFP(G)+SIVVLP(G): inhibitor added within the first 24 hours of infection
[3] = test system: naive CD4+ T cells; assay: Naive T cell proliferation assay (CFSE dilution) with infected DC and anti-CD3; conditions: 25 μM AZT or 1 μM SCY
Protocol: Naive T cell proliferation assay: 48 h after infection, naive T cells were labeled with CFSE (eBioscience) as described previously (Antons et al., 2008). DC were infected with dilutions of SIVVLP(G) and pLaiΔEnv-GFP3(G) WT (indicated as HIVGFP(G)) or G89V. AZT was added at the time of infection and SCY was added from 3 to 8 hours after infection. 48 hours after infection, half of the DC was processed for surface staining and cytometry. The other half was washed with media and resuspended in fresh media without cytokines. 20,000 T cells were mixed with DC at a DC to T ratio of 1:5 and 1:15. Cells were stimulated by dilutions of anti-CD3 (OKT3 hybridoma supernatant, approximately 1-100 ng/ml) in a total volume of 150 to 200 μl in round bottom 96-well plates. Cells were harvested and analyzed by flow cytometry at day 4 or day 5 postactivation.

| Compound | time at which STAT1 phosphorylation was present [1] [h] | effect on LPS- or poly(I:C)-induced CD86 up-regulation [2] | effect on MDDC activation (CD86 in GFP+) by HIVGFP(G)+SIVVLP(G) [2] | effect on MDDC activation (CD86 in GFP+) by HIVGFP(G)+SIVVLP(G) ([2]; listed as Raltegravir) | ability of treated, HIVGFP(G) and SIVVLP(G) infected DC to induce proliferation [3] |
| --- | --- | --- | --- | --- | --- |
| lipopolysaccharide [LPS] | 2 |  |  |  |  |
| Cc1nnc(C(=O)NC(C)(C)c2nc(C(=O)NCc3ccc(F)cc3)c(O)c(=O)n2C)o1 [RAL, Raltegravir] |  | had no effect | blocked activation | inhibited transduction efficiency and MDDC activation |  |
| Cc1cn([C@H]2C[C@H](N=[N+]=[N-])[C@@H](CO)O2)c(=O)[nH]c1=O [AZT, Zidovudine] |  | had no effect | blocked activation; also recorded: inhibited transduction efficiency and MDDC activation |  | reduced ability to induce proliferation |
